Assay results taken from patent US11974973B2, “Ketone supplements-evoked effect on absence epilepsy by co-administration of uridine” (UNIVERSITY OF SOUTH FLORIDA, priority 2022, dated 2024).
“Also recorded” adds a separate entry of the source.

Assays:
WAG/Rij rats [1] = experiment: EEG recording of spike-wave discharges (SWD number, averaged and total SWD time) in WAG/Rij rat model of human absence epilepsy; assay type: in vivo
Source text: Free access to water and food (Table 1), as well as standard laboratory conditions were provided.
Rats were implanted with stainless steel screw electrodes for EEG recording under isoflurane-air mixture (2.0-2.5%) anesthesia. The screw electrodes were placed epidurally over the cortex of the frontal (AP: 2.0 mm; L: 2.1 mm) and parietal (AP: −6.5 mm; L: 2.1 mm) areas. Reference electrodes and ground electrodes were also stainless-steel screw electrodes (implanted above the cerebellar cortex). All electrodes were soldered to a 10-pin socket and permanently attached to the skull with dentacrylate cement (Ivoclar Vivadent AG, Schaan, Liechtenstein). Lidocaine ointment (5%; EGIS, Budapest, Hungary) was used as post-operative pain relief.
The EEG was recorded in a Faraday cage. […] The sampling rate was 500 Hz whereas the bandwidth of the EEG recording was 0.3 Hz to 150 Hz. Both the treatments and handling may induce stress and behavioral changes, which may modify the SWD number. […] For this reason, data of the first 30 min after the treatments was excluded from the analysis. Thus, the number and time of SWDs were considered between 30 and 270 min of post-treatment time (from 1.00 PM to 5.00 PM). SWDs (a train of asymmetric 7-11 Hz sharp spikes and slow waves) were cut off from the raw data files and were analyzed by FFT analysis. The recording periods were split into 60 min sections and evaluated separately. […]
Animals were assigned into eight groups (FIG. 1). To help the rats to adapt to the experimental procedures (e.g., EEG recording), after the two-week recovery period animals were handled daily and were connected to the EEG/CED system for 4 days (once a day, for 4.5 h) (group 1-8). Moreover, on same days, rats of group 7 and group 8 were also gavaged by water (2.5 g/kg/day) for the adaptation of rats to gavage method. To establish averaged control SWD numbers (group 1-8) and control average time and total time of SWDs (group 5, group 6, and group 8), all rats received 1 mL saline i.p. on 3 consecutive days (three control days, first treatment). Thirty min later, animals were injected again with 1 mL saline i.p. (second treatment, group 1-6) or gavaged by 2.5 g/kg water (second treatment, group 7 and 8). […] On the fourth day of experiments, the rats in group 1 and group 2 were i.p. injected with 1 mL 10% DMSO solution (first treatment) and, 30 min later, with 250 mg/kg, and 1000 mg/kg uridine in 1 mL saline (second treatment), respectively. On the fourth day, animals in group 3 first received 0.2 mg/kg DPCPX alone in 1 mL 10% DMSO solution (first treatment) followed by i.p. 1 mL saline (30 min later; second treatment) (FIG. 1). […] On that day, the animals in group 5 were injected with combined i.p. injection of DPCPX and uridine: 0.2 mg/kg DPCPX in 1 mL 10% DMSO solution (first treatment) and, 30 min later, 1000 mg/kg uridine in 1 mL saline (second treatment) were administered. […] Animals of group 7 received i.p. 1 mL saline (first treatment), and 30 min later, gavage of 2.5 g/kg KSMCT was carried out (second treatment) on the fourth day. […] On the fifth (PTC) day, i.p. administration of 1 mL saline (first treatment) was followed by gavage of 2.5 g/kg water (30 min later; second treatment; group 7 and 8) (FIG. 1).
Data were presented as means±standard error of the mean (S.E.M.). The pretreatment control values of SWD numbers (group 1-8) and SWD time (group 5, group 6, and group 8) were the grand average of SWD numbers and time recorded on the three control days.

WAG/Rij rats [2] = settings: effective doses; previous studies [7,8,25,41,45]; cited from earlier work
[3] = DPCPX i.p. 0.2 mg/kg or SCH 58261 i.p. 0.5 mg/kg alone, PTC day (groups 3 and 4, FIG. 2C,D)

SMILES	SWD number compared to control (WAG/Rij rats [1]; DPCPX i.p. 0.2 mg/kg alone, treatment day, 30-270 min (group 3, FIG. 2C), 0.2 mg/kg)	SWD number compared to control (WAG/Rij rats [1]; [3])	sleep-waking ratios and averaged time of SWDs (WAG/Rij rats [2])	SWD number compared to control (WAG/Rij rats [1]; SCH 58261 i.p. 0.5 mg/kg alone, treatment day, four hours recording (group 4, FIG. 2D))	SWD number compared to control (WAG/Rij rats [1]; uridine i.p. 250 mg/kg alone, post-treatment control (PTC) day (group 1, FIG. 2A))	SWD number compared to control (WAG/Rij rats [1]; uridine i.p. 250 mg/kg alone, treatment day, second to fourth hours of recording (group 1, FIG. 2A), 250 mg/kg)	SWD number compared to control (WAG/Rij rats [1]; uridine i.p. 1000 mg/kg alone, PTC day, 30-270 min (group 2, FIG. 2B))	SWD number compared to control (WAG/Rij rats [1]; uridine i.p. 1000 mg/kg alone, treatment day, 90-270 min (group 2, FIG. 2B), 1000 mg/kg)
CCCn1c(=O)c2[nH]c(C3CCCC3)nc2n(CCC)c1=O [DPCPX, 1,3-dipropyl-8-cyclopentylxanthine]	did not evoke proepileptic effect; also recorded: did not generate changes in SWD number	did not change SWD number on PTC days	did not change sleep-waking ratios and averaged time of SWDs	–	–	–	–	–
Nc1nc2c(cnn2CCc2ccccc2)c2nc(-c3ccco3)nn12 [SCH 58261, 7-(2-phenylethyl)-5-amino-2-(2-furyl)-pyrazolo-[4,3-e]-1,2,4-triazolo[1,5-c]pyrimidine]	–	did not change SWD number on PTC days	did not change sleep-waking ratios and averaged time of SWDs	did not generate anti-epileptic effect	–	–	–	–
O=c1ccn([C@@H]2O[C@H](CO)[C@@H](O)[C@H]2O)c(=O)[nH]1 [uridine]	–	–	did not change sleep-waking ratios and averaged time of SWDs	–	significant change in SWD number was not observed	only a trend of non-significant decrease in SWD number	significantly decreased SWD number	significantly decreased the SWD number
